The values below come from patent US6787539B2, “2,4,5,-trisubstituted pyrimidine derivatives” (Hoffmann-La Roche Inc., priority 2000, dated 2004).

The target of the assay is T1, human NK1 receptor (Homo sapiens, UniProt P25103).
T1 construct: expressed in transfected cells; host or cells: CHO cells infected using the Semliki virus expression system; membrane suspension
T1 sequence (P25103 whole entry): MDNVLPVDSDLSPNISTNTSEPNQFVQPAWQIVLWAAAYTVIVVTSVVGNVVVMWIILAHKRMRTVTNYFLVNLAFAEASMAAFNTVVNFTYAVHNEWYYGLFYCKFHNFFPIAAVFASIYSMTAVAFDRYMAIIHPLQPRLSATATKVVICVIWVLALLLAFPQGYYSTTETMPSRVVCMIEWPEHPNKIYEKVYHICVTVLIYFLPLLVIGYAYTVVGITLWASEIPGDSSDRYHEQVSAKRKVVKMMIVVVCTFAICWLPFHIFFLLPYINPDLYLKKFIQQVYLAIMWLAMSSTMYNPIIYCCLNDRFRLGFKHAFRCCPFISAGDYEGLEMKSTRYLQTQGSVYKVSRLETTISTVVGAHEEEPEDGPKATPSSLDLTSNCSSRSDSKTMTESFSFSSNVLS
The assay can be described thus: Affinity for the NK1 receptor, [3H]substance P displacement binding assay. The note with it: affinity to the NK-1 receptor; human NK1 receptors in CHO cells; [3H]substance P 0.6 nM; 60 min at room temperature. Here is the method:
The affinity of test compounds for the NK1 receptor was evaluated at human NK1 receptors in CHO cells infected with the human NK1 receptor (using the Semliki virus expression system) and radiolabelled with [^3H]substance P (final concentration 0.6 nM). Binding assays were performed in HEPES buffer (50 mM, pH 7.4) containing BSA (0.04%) leupeptin (8 μg/ml), MnCl2 (3 mM) and phosphoramidon (2 μM). Binding assays consisted of 250 μl of membrane suspension (1.25×10^5 cells/assay tube), […] of displacing agent and 125 μl of [^3H]substance P. Displacement curves were determined with at least seven concentrations of the compound. The assay tubes were incubated for 60 min at room temperature after which time the tube contents were rapidly filtered under vacuum through GF/C filters presoaked for 60 min with PEI (0.3%) with 2×2 ml washes of HEPES buffer (50 mM, pH 7.4). The radioactivity retained on the filters was measured by scintillation counting. All assays were performed in triplicate in at least 2 separate experiments.
One may read the Ki as a measure of affinity in units of concentration, obtained from inhibition or displacement. Molecule `CSc1ncc(C(=O)N(C)Cc2cc(C(F)(F)F)cc(C(F)(F)F)c2)c(Oc2ccccc2C)n1` [Example 1, 2-Methylsulfanyl-4-o-tolyloxy-pyrimidine-5-carboxylic acid (3,5-bis-trifluoromethyl-benzyl)-methyl-amide] showed a Ki of 41.7 nM.
The same measure, in the same setting: with `Cc1cc(C)cc(CN(C)C(=O)c2cnc(N3CCN(C)CC3)nc2Oc2ccccc2C)c1` [Example 15, 2-(4-Methyl-piperazin-1-yl)-4-o-tolyloxy-pyrimidine-5-carboxylic acid (3,5-dimethyl-benzyl)-methyl-amide] the figure was 28.2 nM.
A word on the pKi: it is the negative decadic logarithm of the Ki, by convention in mol/L. Read a low pKi as a large Ki. On to “4-(2-Methoxy-phenoxy)-2-(4-methyl-piperazin-1-yl)-pyrimidine-5-carboxylic acid (3,5-bis-trifluoromethyl-benzyl)-methyl-amide [Example 29]”, for which the negative logarithm of the Ki (pKi) came out at 6.50.
The molecule `Cc1ccccc1Oc1nc(N2CCN(C)CC2)ncc1C(=O)N(C)Cc1cc(C(F)(F)F)cc(C(F)(F)F)c1` [Example 4, 2-(4-Methyl-piperazin-1-yl)-4-o-tolyloxy-pyrimidine-5-carboxylic acid (3,5-bis-trifluoromethyl-benzyl)-methyl-amide] had a Ki of 2.88 nM.
Still for that read-out and setting: for `Cc1ccccc1Oc1nc(N2CCN(C)CC2)ncc1C(=O)NCc1cc(Cl)cc(Cl)c1` [Example 19, 2-(4-Methyl-piperazin-1-yl)-4-o-tolyloxy-pyrimidine-5-carboxylic acid 3,5-dichloro-benzylamide] the value was 195 nM; for `Cc1ccccc1Oc1nc(-c2ccccc2)ncc1N(C)C(=O)C(C)(C)c1cc(C(F)(F)F)cc(C(F)(F)F)c1` [Example 73, 2-(3,5-Bis-trifluoromethyl-phenyl)-N-methyl-N-(2-phenyl-4-o-tolyloxy-pyrimidin-5-yl)-isobutyramide], 32.4 nM.
Turning to `Cc1ccccc1Oc1nc(N2CCN(C)CC2)ncc1N(C)C(=O)C(C)(C)c1cc(C(F)(F)F)cc(C(F)(F)F)c1` [Example 49, 2-(3,5-Bis-trifluoromethyl-phenyl)-N-methyl-N-[2-(4-methyl-piperazin-1-yl)-4-o-tolyloxy-pyrimidin-5-yl]-isobutyramide], affinity was put at a Ki of 0.912 nM.
Same read-out and setting: for `COc1cc(CN(C)C(=O)c2cnc(N3CCN(C)CC3)nc2Oc2ccccc2C)cc(OC)c1` [Example 11, 2-(4-Methyl-piperazin-1-yl)-4-o-tolyloxy-pyrimidine-5-carboxylic acid (3,5-dimethoxy-benzyl)-methyl-amide] the value was 170 nM; for `CN(C)CCCOc1ncc(N(C)C(=O)C(C)(C)c2cc(C(F)(F)F)cc(C(F)(F)F)c2)c(Oc2ccc(F)cc2)n1` [Example 63, 2-(3,5-Bis-trifluoromethyl-phenyl)-N-[2-(3-dimethylamino-propoxy)-4-(4-fluoro-phenoxy)-pyrimidin-5-yl]-N-methyl-isobutyramide], 9.55 nM.
Same read-out and setting: for `Cc1ccccc1Oc1nc(-c2ccncc2)ncc1C(=O)N(C)Cc1cc(C(F)(F)F)cc(C(F)(F)F)c1` [Example 39, 2-Pyridin-4-yl-4-o-tolyloxy-pyrimidine-5-carboxylic acid (3,5-bis-trifluoromethyl-benzyl)-methyl-amide] the value was 16.2 nM.
Turning to `Cc1ccccc1Oc1nc(N2CCSCC2)ncc1C(=O)N(C)Cc1cc(C(F)(F)F)cc(C(F)(F)F)c1` [Example 44, 2-Thiomorpholin-4-yl-4-o-tolyloxy-pyrimidine-5-carboxylic acid (3,5-bis-trifluoromethyl-benzyl)-methyl-amide], the Ki was 20 nM.
`CSc1ncc(C(=O)N(C)Cc2cc(C(F)(F)F)cc(C(F)(F)F)c2)c(Oc2ccccc2)n1` [Example 23, 2-Methylsulfanyl-4-phenoxy-pyrimidine-5-carboxylic acid (3,5-bis-trifluoromethyl-benzyl)-methyl-amide]: the affinity corresponds to a Ki of 97.7 nM.
In turn, `Cc1ccccc1Oc1nc(OCCN2CCOCC2)ncc1N(C)C(=O)C(C)(C)c1cc(C(F)(F)F)cc(C(F)(F)F)c1` [Example 52, 2-(3,5-Bis-trifluoromethyl-phenyl)-N-methyl-N-[2-(2-morpholin-4-yl-ethoxy)-4-o-tolyloxy-pyrimidin-5-yl]-isobutyramide] had a Ki of 0.794 nM.
As to `Cc1ccccc1Oc1nc(OCCN2CCOCC2)ncc1C(=O)N(C)Cc1cc(C(F)(F)F)cc(C(F)(F)F)c1` [Example 7, 2-(2-Morpholin-4-yl-ethoxy)-4-o-tolyloxy-pyrimidine-5-carboxylic acid (3,5-bis-trifluoromethyl-benzyl)-methyl-amide], the inhibition constant (Ki) was 4.68 nM.
